Target: T1, COX-2 (Homo sapiens, UniProt P35354)
T1 sequence (P35354 18-604): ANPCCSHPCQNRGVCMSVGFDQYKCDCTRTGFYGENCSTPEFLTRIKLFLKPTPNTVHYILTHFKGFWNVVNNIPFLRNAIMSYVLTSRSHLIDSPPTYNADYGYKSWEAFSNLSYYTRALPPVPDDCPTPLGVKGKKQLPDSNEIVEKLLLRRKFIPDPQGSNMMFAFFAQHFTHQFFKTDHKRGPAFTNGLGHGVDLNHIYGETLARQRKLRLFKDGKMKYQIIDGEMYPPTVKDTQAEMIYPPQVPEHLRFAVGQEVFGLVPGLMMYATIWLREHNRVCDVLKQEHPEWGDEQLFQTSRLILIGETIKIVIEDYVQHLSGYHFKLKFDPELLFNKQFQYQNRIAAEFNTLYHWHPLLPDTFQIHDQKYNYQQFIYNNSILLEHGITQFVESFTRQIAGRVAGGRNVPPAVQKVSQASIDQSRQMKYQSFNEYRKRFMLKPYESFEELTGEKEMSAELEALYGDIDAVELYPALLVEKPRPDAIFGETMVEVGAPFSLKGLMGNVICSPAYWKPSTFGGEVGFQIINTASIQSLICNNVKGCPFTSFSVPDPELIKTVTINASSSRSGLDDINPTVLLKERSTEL
Experiment: PET neuroimaging of rats with localized human COX-2 overexpression (intrastriatal AAV2-GFP-hCOX2)
Assay type: in vivo
Set-up: FLAG; P2A linker remnant (GFP cassette co-expressed, separated by P2A); host or cells: rat striatal (caudate putamen) neurons transduced in vivo with AAV2, human synapsin promoter
Conditions: COX-2 overexpression rat model
Method: Localized overexpression of human COX-2 was induced in rats with intrastriatal injections of AAV2-GFP-hCOX2 to the right caudate and AAV2-GFP (control virus) to the left caudate (Figure 2A).[53] Animals also received a systemic injection of mannitol to enhance vector spread and transgene expression.[54] To directly compare the kinetic profiles of the three COX-2 tracers, intrasubject imaging was performed in several rats. Each animal was scanned under baseline and competition (+celecoxib) conditions, testing each tracer within each animal (initial data in Figure 2). […] The full experimental design was then replicated (Figure S8 in the Supporting Information). An additional experiment lacking the control virus to the left caudate was performed to facilitate assessment of tracer uptake that could be mediated by the instrastiatal injection through blood brain barrier disruption (Figure S9 in the Supporting Information).
In accordance with Massachusetts General Hospital Institutional Animal Care and Use Committee (IACUC) protocols, Sprague Dawley rats (300-500g, Charles River Laboratories), wildtype mice (Strain […]
Respiratory rates and body temperature were monitored through all imaging and surgical procedures, generally using a respiratory pad and rectal probe. […]
Figure 9). […] Using a sterile ruler coordinates ML 2.5 mm; AP 0.5 mm was measured and marked respective t o bregma. […]

time of clear separation of right caudate PET signal from controls (left caudate and cerebellum): 10 min
Compound: [11CH3]S(=O)(=O)c1ccc(-c2cccc(NCc3ccoc3)n2)cc1 [[^11C]BRD1158]
